Measurements from patent publication US20090012047A1, “Crystalline forms of ibandronate sodium” (priority 2006, published 2009).

Test: Storage stability of crystalline forms at room temperature for two years (form by XRD)
Format: physicochemical
Conditions: for Crystal form after 2 years: 1 g sample in closed glass bottle, room temperature, form by XRD, monosodium salt
Method: The x-ray powder diffraction was performed on Scintag X-ray powder diffractometer model X'TRA with a solid state detector at room temperature. Copper radiation of 1.5418 Å was used. The sample holder was a round standard aluminum sample holder with rough zero background. The scanning parameters were range: 2-40 degrees two-theta; scan mode: continuous scan; step size: 0.05 degrees; and at a rate of 5 degrees/minute.
1 g samples of crystalline ibandronate sodium Forms K1, D, J, H, E, Q2, QQ, K3, Q4, L, G, C, S, R, Q3, K, and Q6, as well as amorphous form were each placed into separate glass bottles, which were then closed and stored at room temperature for 2 years.

| Compound | Crystal form after 2 years | Crystal form after 2 years (listed as H) | Stability of crystalline form on storage (about 15° C. to about 30° C. for more than about 3 months, as described in Example 7) | Retention of crystalline form after storage (room temperature for two years) |
| --- | --- | --- | --- | --- |
| CCCCCN(C)CCC(O)(P(=O)([O-])O)P(=O)(O)O.[Na+] [Form C, (1-hydroxy-3-(N-methyl-N-pentylamino)propylidene) bisphosphonic acid monosodium salt] | Form V | – | – | – |
| CCCCCN(C)CCC(O)(P(=O)([O-])O)P(=O)(O)O.[Na+] [Form H, (1-hydroxy-3-(N-methyl-N-pentylamino)propylidene) bisphosphonic acid monosodium salt] | mixture of crystalline ibandronate sodium Forms H and V | H + V | – | – |
| CCCCCN(C)CCC(O)(P(=O)([O-])O)P(=O)(O)O.[Na+] [Form S, (1-hydroxy-3-(N-methyl-N-pentylamino)propylidene) bisphosphonic acid monosodium salt] | Q plus additional XRD reflections at 10.4, | – | – | – |
| CCCCCN(C)CCC(O)(P(=O)([O-])O)P(=O)(O)O.[Na+] [Form D, (1-hydroxy-3-(N-methyl-N-pentylamino)propylidene) bisphosphonic acid monosodium salt] | – | – | stable | maintained their crystalline form |
